The record followed here is patent publication US11992492B2, “Composition for preventing or treating cellular senescence-associated diseases, containing homoharringtonine as active ingredient” (RESEARCH COOPERATION FOUNDATION OF YEUNGNAM UNIVERSITY, priority 2018, dated 2024).

For data set [1], the system named is replicative senescent human fibroblasts. Briefly: LDH activity analysis (cytotoxicity) in young and replicative senescent human fibroblasts. It is filed as cell-based. To be noted: young vs replicative senescent fibroblasts; FIG. 2C.
Procedure: Cytotoxicity against young and senescent cells was investigated with a lactate dehydrogenase (LDH) activity kit (Dojindo Molecular Technologies Inc.). Young cells (1×10^3 cells/100 μl/well) or senescent cells (2×10^3 cells/100 μl/well) were dispensed into a 96-well plate, and then cultured overnight in a 37° C., 5% CO2 incubator. Homoharringtonine, ABT263 and rapamycin were treated at each concentration, and then incubated for 4 days in a 37° C., 5% CO2 incubator. After transferring the cell culture solution to a 1.5 ml tube, it was centrifuged at 4° C. and 12,000 rpm. 100 μl of the supernatant was dispensed into a 96-well plate, and 100 μl of the LDH measurement solution was added to each well, followed by reaction in a CO2 incubator for 30 minutes. 50 μl of the LDH reaction stop solution was added, and absorbance was measured at 490 nm using a microplate reader. The level of LDH activity was expressed as a relative value based on the absorbance of the control group treated with only DMSO.
Data set [2] relates to human retinal pigmented epithelial cells. Description: CCK-8 analysis and LDH activity analysis in retinal pigmented epithelial cells. It is filed as cell-based. The conditions noted are these: ARPE young and doxorubicin-senescent; FIG. 6D, 6E.
Procedure: Young cells (1×10^3 cells/well) or senescent cells (2×10^3 cells/well) were dispensed into a 96-well plate, and cultured overnight in a 37° C., 5% CO2 incubator.
Homoharringtonine, ABT263 and rapamycin were treated at each concentration, and then incubated for 4 days in a 37° C., 5% CO2 incubator. 10 μl of CCK-8 reagent (Dojindo Molecular Technologies Inc., Kumamoto, Japan) was added to each well, and incubated for 2 hours in an incubator. Then, the absorbance was measured at 450 nm using a Microplate reader. The degree of cell survival was expressed as a relative value for the absorbance of the control group treated with only DMSO as 100%.
Cytotoxicity against young and senescent cells was investigated with a lactate dehydrogenase (LDH) activity kit (Dojindo Molecular Technologies Inc.). Young cells (1×10^3 cells/100 μl/well) or senescent cells (2×10^3 cells/100 μl/well) were dispensed into a 96-well plate, and then cultured overnight in a 37° C., 5% CO2 incubator.
Homoharringtonine, ABT263 and rapamycin were treated at each concentration, and then incubated for 4 days in a 37° C., 5% CO2 incubator. […] 50 μl of the LDH reaction stop solution was added, and absorbance was measured at 490 nm using a microplate reader. The level of LDH activity was expressed as a relative value based on the absorbance of the control group treated with only DMSO.

For the compound `COC(=O)C[C@](O)(CCCC(C)(C)O)C(=O)O[C@@H]1C(OC)=C[C@]23CCCN2CCc2cc4c(cc2[C@H]13)OCO4` [homoharringtonine, Homoharringtonine], the “LDH activity (cytotoxicity)” value in data set [1] is recorded as “increased only in replicative senescent cells compared to young cells”. Further, the “senescent cell-specific cytotoxicity (CCK-8 analysis and LDH activity analysis)” value in data set [2] was “not induced”.
